The format of data set [1] is in vitro ADME. The method, then: For the quality control of labeling, a double-phase paper chromatography on Xinhua no. 1 filter paper was performed to measure labeling efficiency and radiochemical purity, with acetone and ethanol: ammonia: water (2∶1∶5) as mobile phase. A sample of 100 µL ^99mTc-RRL at room temperature was used to observe the in vitro stability. And the in vitro stability was also determined by incubating 100 µL ^99mTc-RRL with 900 µL of normal saline at room temperature and 900 µL of freshly collected serum at 37°C, respectively. The three aliquots were then analyzed at 0, 1, 2, 4 and 6 h by paper chromatography.

The nature of data set [2]: In vitro stability at room temperature, neat and in normal saline (radiochemical purity by paper chromatography). The conditions noted are these: analysed at 0, 1, 2, 4 and 6 h by paper chromatography, average of 3 sampling points. It counts as physicochemical. The method, then: For the quality control of labeling, a double-phase paper chromatography on Xinhua no. 1 filter paper was performed to measure labeling efficiency and radiochemical purity, with acetone and ethanol: ammonia: water (2∶1∶5) as mobile phase.
A sample of 100 µL ^99mTc-RRL at room temperature was used to observe the in vitro stability. And the in vitro stability was also determined by incubating 100 µL ^99mTc-RRL with 900 µL of normal saline at room temperature and 900 µL of freshly collected serum at 37°C, respectively. The three aliquots were then analyzed at 0, 1, 2, 4 and 6 h by paper chromatography.

Data set [3] relates to mice bearing HepG2 xenografts. Details: species or system BALB/c nu/nu mice. Conditions: mouse, in vivo. The text has this:
BALB/c nu/nu mice (female, 18 ± 2 g, 3- to 4-wk-old; Department of Laboratory Animal Science, Peking University First Hospital) were used in this study. The mice were inoculated with 1×10^7 HepG2 cells in the right upper limbs, and the tumors were allowed to grow to about a 1 cm diameter for largest diameter which could be measured. The mice were maintained using a standard diet, bedding and environment, with free access to food and drinking water.
40 BALB/c nu/nu mice with HepG2 xenografts were randomly divided into 8 groups (6 experimental groups, 1 blocking group and 1 control group) of 5 mice each. The experimental groups were treated with ^99mTc-RRL directly, and the blocking group was treated with excessive unlabeled RRL (500 µg, dissolved in 50 µL, 0.5 M, pH = 7.4 phosphate buffer) from lateral tail vein 30 minutes before injection of the radiolabeled derivative. The control group was administered with Na^99mTcO4 only.
The radiolabeled compounds were purified and isolated from the Sephadex G25 gel-filtration column, 1,850 kBq of ^99mTc-RRL was injected into each mouse via the lateral tail vein. All injections were successful with no leakage. The animals of 6 experimental groups were sacrificed by cervical dislocation at 15 min, 30 min, 1, 2, 4 and 6 h after injection, respectively. At 6 h, the blocking and control group were also studied.
The mice were dissected and tissues of interest (blood, heart, liver, spleen, lung, kidney, stomach, small intestine, bladder, bone, skeletal muscle and tumor) were weighed, and their radioactivity was measured using a γ-well counter, which was equipped with a NaI(Tl) crystal detector and coupled to a high gain PMT for maximum efficiency of 80%, along with a standard solution of the injection. Radioactivity results were recorded as the percentage injected activity per gram (%ID/g) of tissue corrected for background and decay.

A further data set deals with HepG2 xenografts. Description: Planar gamma imaging of tumor xenografts. The class given is in vivo, BALB/c nu/nu mice. The procedure: 12 BALB/c nu/nu mice with HepG2 xenografts were divided into 4 groups of 3 mice each (experimental, blocking, control and micro-PET group). The tumors were about 1 cm diameter for planar gamma or micro-PET imaging.
In experimental group, 7.4 MBq ^99mTc-RRL (100 µl, diluted with phosphate buffer, pH 7.4), which were purified and separated by Sephadex G25 gel-filtration column, were then injected into each mouse via lateral tail vein. In blocking group, 500 µg unlabeled RRL was injected 30 minutes before injection of ^99mTc-RRL. In control group, each mouse was only administered with 7.4 MBq Na^99mTcO4. All injections were successful with no leakage.
A whole-body planar imaging was performed at 1, 2, 4 and 6 h after injection in the Department of Nuclear Medicine, Peking University First Hospital, using SPECT (SPR SPECT; GE Healthcare, Inc.) equipped with a low-energy, high-resolution, parallel-hole collimator. Planar images were acquired 200,000 counts with a zoom factor of 2.0, and were digitally stored in a 256×256 matrix size.

Bridges are numbered along the chain shown (N, C = ends). Where no end group is shown, it is not given here. [ ]: non-standard residue; d: D form.

On to “G[dA]GGK[dS][dS]CGGRRLGGC-NH2 (disulfide 8-16 (inferred)) [^99mTc-RRL, cyclic (disulfide) RRL peptide radiolabeled with 99mTc by a one-step method]”, for which the “Radiochemical purity over 6 hours in fresh 37°C serum” value in data set [1] is given as “more than 93%”. The “Radiochemical purity over 6 hours at room temperature (RT)” value in data set [2] (100 µL sample at room temperature) is reported as “more than 93%”. Besides, the “Radiochemical purity over 6 hours in normal saline (NS) at RT” value in data set [2] (100 µL with 900 µL normal saline at room temperature) was “more than 93%”. For the same substance, in data set [3], the “Blood clearance: tracer cleared from blood” value is reported as “more than 71.3%”, the Ratio of tumor-to-blood stood at 1.95, the Ratio of tumor-to-liver was 1.98 and the Ratio of tumor-to-muscle result is “exceeded 6.5”. Besides, the “Tracer cleared from tumor” value in data set [3] is listed as “less than 4.39%”. Also, in the data set with HepG2 xenografts (500 µg unlabeled RRL injected 30 minutes before 7.4 MBq tracer, any time after injection), the “Tumor visualisation in planar gamma imaging, blocking group” value is “not shown clearly”. The “Tumor visualisation in planar gamma imaging” value in the data set on HepG2 xenografts (experimental group, 7.4 MBq i.v., at 2–6 h after administration) was “imaged clearly”.
